Laboratory results from patent publication US10160747B2, “Compounds and methods for kinase modulation, and indications therefor” (Plexxikon Inc., priority 2016, dated 2018).
pIC50: −log10 of the molar value.

Legend:
[1] = system: MOLM-14 F691L (endogenous FLT3 ITD and transfected FLT3 F691L); assay: MOLM-14 F691L cell proliferation assay (CellTiter-Glo); type: cell-based; settings: Homo sapiens, MOLM-14, 72 h; 3 d growth, GMean
In short: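 MOLM-14 cells (FLT3 ITD) carrying D835Y or F691L, 1×10^4 cells/well, eight 1:3 dilutions from 1 μM final, 0.2% DMSO, 3 days at 37 °C, 5% CO2. Viability by CellTiter-Glo luminescence (ATP content); IC50 from concentration-response.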

[2] = target: T1, BA/F3-FLT3-ITD + D835Y (Homo sapiens, UniProt P36888, D835Y, cells depend on it, form not given); assay: Engineered BA/F3 cell growth assay, FLT3 ITD/D835Y; type: cell-based, murine; settings: 3 d growth
T1 sequence (P36888 with tags, fused parts or gaps INS600HVDFREYEYD/D835Y): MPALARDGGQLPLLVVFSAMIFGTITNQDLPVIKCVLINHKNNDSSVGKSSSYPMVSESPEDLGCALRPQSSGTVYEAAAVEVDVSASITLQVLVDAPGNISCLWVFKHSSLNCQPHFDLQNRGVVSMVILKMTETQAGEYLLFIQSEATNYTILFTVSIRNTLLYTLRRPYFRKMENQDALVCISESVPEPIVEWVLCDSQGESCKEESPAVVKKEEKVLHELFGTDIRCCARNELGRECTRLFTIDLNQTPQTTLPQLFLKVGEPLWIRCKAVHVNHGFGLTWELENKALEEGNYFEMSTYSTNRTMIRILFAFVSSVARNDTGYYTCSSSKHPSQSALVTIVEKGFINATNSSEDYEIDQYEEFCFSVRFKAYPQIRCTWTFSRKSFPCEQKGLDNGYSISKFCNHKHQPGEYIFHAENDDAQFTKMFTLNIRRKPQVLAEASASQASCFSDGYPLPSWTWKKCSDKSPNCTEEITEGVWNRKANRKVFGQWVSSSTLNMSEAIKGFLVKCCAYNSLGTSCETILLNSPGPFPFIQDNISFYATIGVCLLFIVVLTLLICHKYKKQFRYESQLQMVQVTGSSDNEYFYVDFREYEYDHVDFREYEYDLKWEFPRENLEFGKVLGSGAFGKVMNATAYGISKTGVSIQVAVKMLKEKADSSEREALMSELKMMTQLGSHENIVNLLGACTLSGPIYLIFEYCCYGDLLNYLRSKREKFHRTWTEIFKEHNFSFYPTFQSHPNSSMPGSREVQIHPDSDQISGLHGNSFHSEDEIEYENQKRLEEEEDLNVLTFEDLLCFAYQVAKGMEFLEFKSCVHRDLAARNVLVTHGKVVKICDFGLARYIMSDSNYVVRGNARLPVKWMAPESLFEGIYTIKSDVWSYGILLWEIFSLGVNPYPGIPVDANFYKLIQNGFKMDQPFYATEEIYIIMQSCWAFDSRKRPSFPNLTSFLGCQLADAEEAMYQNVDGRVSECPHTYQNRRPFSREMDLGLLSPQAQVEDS
In short: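 IC50 derived from CellTiter-Glo ATP luminescence after 3 days at 37 °C, 5% CO2, over eight 1:3 dilutions from 1 μM (0.2% DMSO final). Cells: IL-3-independent murine Ba/F3 expressing full-length FLT3 ITD/D835Y, 1×10^4 per well.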

| Structure (SMILES) | pIC50 [1] | GI50 [2] |
| --- | --- | --- |
| O=C(Cc1ccc(-c2cnc3[nH]cc(Cl)c3n2)cc1F)Nc1cncc(C(F)(F)F)c1 [Compound P-0061, 2-[4-(7-chloro-5H-pyrrolo[2,3-b]pyrazin-2-yl)-2-fluoro-phenyl]-N-[5-(trifluoromethyl)-3-pyridyl]acetamide] | 5.00 to 10.00 | 0.0001 to 10 µM |
| CC(=O)c1c[nH]c2ncc(-c3ccc(CC(=O)Nc4cncc(C(F)(F)F)c4)c(F)c3)cc12 [Compound P-0055, 2-[4-(3-acetyl-1H-pyrrolo[2,3-b]pyridin-5-yl)-2-fluoro-phenyl]-N-[5-(trifluoromethyl)-3-pyridyl]acetamide] | 5.00 to 10.00 | 0.0001 to 10 µM |
| Cc1ncc(NC(=O)Cc2ccc(-c3cnc(Nc4cnn5ccccc45)nc3)cc2F)cc1C(F)(F)F [Compound P-0065, 2-(2-fluoro-4-(2-(pyrazolo[1,5-a]pyridin-3-ylamino)pyrimidin-5-yl)phenyl)-N-(6-methyl-5-(trifluoromethyl)pyridin-3-yl)acetamide] | 5.00 to 10.00 | 0.0001 to 10 µM |
| CC(=O)c1c[nH]c2ncc(-c3ccc(CC(=O)Nc4cnc(C)c(C(F)(F)F)c4)c(F)c3)cc12 [Compound P-0063, 2-[4-(3-acetyl-1H-pyrrolo[2,3-b]pyridin-5-yl)-2-fluoro-phenyl]-N-[6-methyl-5-(trifluoromethyl)-3-pyridyl]acetamide] | 5.00 to 10.00 | 0.0001 to 10 µM |
| Cc1ncc(NC(=O)Cc2ccc(-c3cnc(Nc4cn[nH]c4)nc3)cc2F)cc1C(F)(F)F [Compound P-0027, 2-[2-fluoro-4-[2-(1H-pyrazol-4-ylamino)pyrimidin-5-yl]phenyl]-N-[6-methyl-5-(trifluoromethyl)-3-pyridyl]acetamide] | 5.00 to 10.00 | 0.0001 to 10 µM |
| Cn1cc(Nc2ncc(-c3ccc(CC(=O)NCc4ccc(C(F)(F)F)cn4)cc3)cn2)cn1 [Compound P-0162, 2-[4-[2-[(1-methylpyrazol-4-yl)amino]pyrimidin-5-yl]phenyl]-N-[[5-(trifluoromethyl)-2-pyridyl]methyl]acetamide] | 5.00 to 10.00 | 0.0001 to 10 µM |
| O=C(Cc1ccc(-c2cnc3[nH]cc(F)c3c2)cc1F)Nc1cc(Cl)c(C2CC2)cn1 [Compound P-0044, N-(4-chloro-5-cyclopropyl-2-pyridyl)-2-[2-fluoro-4-(3-fluoro-1H-pyrrolo[2,3-b]pyridin-5-yl)phenyl]acetamide] | 5.00 to 10.00 | 0.0001 to 10 µM |
| Cc1nn(C)cc1Nc1ncc(-c2ccc(CC(=O)Nc3cnc(C)c(C(F)(F)F)c3)c(F)c2)cn1 [Compound P-0077, 2-[4-[2-[(1,3-dimethylpyrazol-4-yl)amino]pyrimidin-5-yl]-2-fluoro-phenyl]-N-[6-methyl-5-(trifluoromethyl)-3-pyridyl]acetamide] | 5.00 to 10.00 | 0.0001 to 10 µM |

More lines, now with the values ahead:

| pIC50 [1] | GI50 [2] | Structure (SMILES) |
| --- | --- | --- |
| 5.00 to 10.00 | 0.0001 to 10 µM | Cn1cc(Nc2ncc(-c3ccc(CC(=O)Nc4cncc(C5CC5)c4)c(F)c3)cn2)cn1 [Compound P-0081, N-(5-cyclopropyl-3-pyridyl)-2-[2-fluoro-4-[2-[(1-methylpyrazol-4-yl)amino]pyrimidin-5-yl]phenyl]acetamide] |
| 5.00 to 10.00 | 0.0001 to 10 µM | Cc1ncc(NC(=O)Cc2ccc(-c3cnc4c(c3)C3(CC3)C(=O)N4)cc2F)cc1C(F)(F)F [Compound P-0057, 2-[2-fluoro-4-(2-oxospiro[1H-pyrrolo[2,3-b]pyridine-3,1′-cyclopropane]-5-yl)phenyl]-N-[6-methyl-5-(trifluoromethyl)-3-pyridyl]acetamide] |
| 5.00 to 10.00 | 0.0001 to 10 µM | COc1ncc(NC(=O)Cc2ccc(-c3cnc(Nc4cn[nH]c4)nc3)cc2F)cc1C(F)(F)F [Compound P-0026, 2-[2-fluoro-4-[2-(1H-pyrazol-4-ylamino)pyrimidin-5-yl]phenyl]-N-[6-methoxy-5-(trifluoromethyl)-3-pyridyl]acetamide] |
| 5.00 to 10.00 | 0.0001 to 10 µM | Cn1cc(Nc2ncc(-c3ccc(CC(=O)NCc4ccccn4)c(F)c3)cn2)cn1 [Compound P-0088, 2-[2-fluoro-4-[2-[(1-methylpyrazol-4-yl)amino]pyrimidin-5-yl]phenyl]-N-(2-pyridylmethyl)acetamide] |
